Test results from the supplement of paper PMC10883282.
± gives the standard deviation of the averaged measurements.

Test system: SW684
Assay: relative viability vs DMSO control (72 h) (fraction); higher = more viable cells
Outline: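 Sarcoma cell lines were seeded in 384-well plates at densities chosen for 80–90% confluence, then 24 h later given 2.5 µl of serially diluted compound drawn from source plates spanning 10 mM to 0.0002 mM. They were held 72 h at 37 °C, 5% CO2, with 0.1% DMSO vehicle and a 5 µM positive control included. Relative viability was read with ATPLite as percent growth and averaged over up to triplicate wells. Rescaling placed full at 1 and none at 0.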

Structure (SMILES): CC(C)NC(=O)C1CCC(n2c(NC(=O)c3ccc(F)cc3)nc3ccc(CN4CCC(C(C)(C)O)CC4)cc32)CC1 (stereo not given) [Belizatinib]
- relative viability (0.00017 µM): 1.169 ± 0.011
- relative viability (0.00051 µM): 1.17 ± 0.071
- relative viability (0.00152 µM): 1.19 ± 0.024
- relative viability (0.00457 µM): 1.21 ± 0.098
- relative viability (0.01372 µM): 1.21 ± 0.11
- relative viability (0.04115 µM): 1.17 ± 0.056
- relative viability (0.1235 µM): 1.16 ± 0.012
- relative viability (0.3704 µM): 1.18 ± 0.03
- relative viability (1.111 µM): 1.09 ± 0.048
- relative viability (3.333 µM): 0.798 ± 0.034
- relative viability (10 µM): 0.381 ± 0.056

Structure (SMILES): C=CC(=O)N1CCC[C@@H](n2nc(-c3ccc(Oc4ccccc4)cc3)c3c(N)ncnc32)C1 [Ibrutinib]
- relative viability (0.00017 µM): 1.18 ± 0.037
- relative viability (0.00051 µM): 1.22 ± 0.063
- relative viability (0.00152 µM): 1.2 ± 0.016
- relative viability (0.00457 µM): 1.22 ± 0.026
- relative viability (0.01372 µM): 1.17 ± 0.054
- relative viability (0.04115 µM): 1.24 ± 0.054
- relative viability (0.1235 µM): 1.15 ± 0.12
- relative viability (0.3704 µM): 1.24 ± 0.061
- relative viability (1.111 µM): 1.26 ± 0.078
- relative viability (3.333 µM): 1.3 ± 0.071
- relative viability (10 µM): 1.06 ± 0.031

Structure (SMILES): O=C(Cc1ccc(-c2ccc(OCCN3CCOCC3)cc2)cn1)NCc1ccccc1 [KX2-391]
- relative viability (0.00017 µM): 1.13 ± 0.039
- relative viability (0.00051 µM): 1.15 ± 0.03
- relative viability (0.00152 µM): 1.18 ± 0.014
- relative viability (0.00457 µM): 1.182 ± 0.011
- relative viability (0.01372 µM): 1.15 ± 0.025
- relative viability (0.04115 µM): 1.04 ± 0.073
- relative viability (0.1235 µM): 0.77 ± 0.02
- relative viability (0.3704 µM): 0.696 ± 0.027
- relative viability (1.111 µM): 0.751 ± 0.024
- relative viability (3.333 µM): 0.762 ± 0.044
- relative viability (10 µM): 0.734 ± 0.033

Structure (SMILES): CC(=O)Nc1cccc(-n2c(=O)n(C3CC3)c(=O)c3c(Nc4ccc(I)cc4F)n(C)c(=O)c(C)c32)c1 [Trametinib]
- relative viability (0.00017 µM): 1.16 ± 0.02
- relative viability (0.00051 µM): 1.17 ± 0.045
- relative viability (0.00152 µM): 1.19 ± 0.04
- relative viability (0.00457 µM): 1.14 ± 0.035
- relative viability (0.01372 µM): 1.05 ± 0.0092
- relative viability (0.04115 µM): 0.859 ± 0.018
- relative viability (0.1235 µM): 0.615 ± 0.0083
- relative viability (0.3704 µM): 0.552 ± 0.011
- relative viability (1.111 µM): 0.511 ± 0.017
- relative viability (3.333 µM): 0.517 ± 0.0077
- relative viability (10 µM): 0.4614 ± 0.002

Structure (SMILES): COc1cc2nccc(Oc3ccc(NC(=O)Nc4cc(C)on4)c(Cl)c3)c2cc1OC [Tivozanib]
- relative viability (0.00017 µM): 1.17 ± 0.059
- relative viability (0.00051 µM): 1.16 ± 0.028
- relative viability (0.00152 µM): 1.19 ± 0.096
- relative viability (0.00457 µM): 1.19 ± 0.054
- relative viability (0.01372 µM): 1.16 ± 0.042
- relative viability (0.04115 µM): 1.122 ± 0.0093
- relative viability (0.1235 µM): 1.15 ± 0.027
- relative viability (0.3704 µM): 1.23 ± 0.066
- relative viability (1.111 µM): 1.25 ± 0.092
- relative viability (3.333 µM): 1.12 ± 0.054
- relative viability (10 µM): 0.918 ± 0.037

Structure (SMILES): COc1cc2c(cc1O)CCN[C@]21CS[C@@H]2c3c(OC(C)=O)c(C)c4c(c3[C@H](COC1=O)N1[C@@H]2[C@H]2c3c(cc(C)c(OC)c3O)C[C@@H]([C@@H]1O)N2C)OCO4 [Trabectedin]
- relative viability (2 pM): 1.22 ± 0.037
- relative viability (5 pM): 1.2 ± 0.027
- relative viability (15 pM): 1.22 ± 0.047
- relative viability (50 pM): 1.18 ± 0.06
- relative viability (0.00014 µM): 1.2 ± 0.045
- relative viability (0.00041 µM): 1.1605 ± 0.00091
- relative viability (0.0012 µM): 0.64 ± 0.054
- relative viability (0.0037 µM): 0.811 ± 0.043
- relative viability (0.011 µM): 0.84 ± 0.038
- relative viability (200 fM): 1.17 ± 0.051
- relative viability (600 fM): 1.2 ± 0.071

Structure (SMILES): CNC(=O)c1cc(Oc2ccc(NC(=O)Nc3ccc(Cl)c(C(F)(F)F)c3)c(F)c2)ccn1 [Regorafenib]
- relative viability (0.00017 µM): 1.194 ± 0.0028
- relative viability (0.00051 µM): 1.23 ± 0.02
- relative viability (0.00152 µM): 1.22 ± 0.013
- relative viability (0.00457 µM): 1.24 ± 0.049
- relative viability (0.01372 µM): 1.21 ± 0.036
- relative viability (0.04115 µM): 1.15 ± 0.031
- relative viability (0.1235 µM): 1.21 ± 0.049
- relative viability (0.3704 µM): 1.24 ± 0.036
- relative viability (1.111 µM): 1.32 ± 0.054
- relative viability (3.333 µM): 1.3 ± 0.03
- relative viability (10 µM): 0.772 ± 0.016

Structure (SMILES): C[C@@H]1CCN(C(=O)CC#N)C[C@@H]1N(C)c1ncnc2[nH]ccc12 [Tofacitinib]
- relative viability (0.00017 µM): 1.2 ± 0.035
- relative viability (0.00051 µM): 1.24 ± 0.023
- relative viability (0.00152 µM): 1.2 ± 0.004
- relative viability (0.00457 µM): 1.23 ± 0.028
- relative viability (0.01372 µM): 1.215 ± 0.012
- relative viability (0.04115 µM): 1.192 ± 0.0029
- relative viability (0.1235 µM): 1.19 ± 0.018
- relative viability (0.3704 µM): 1.22 ± 0.031
- relative viability (1.111 µM): 1.11 ± 0.021
- relative viability (3.333 µM): 1.1 ± 0.015
- relative viability (10 µM): 0.943 ± 0.029

Structure (SMILES): COc1cc2c(Oc3ccc4[nH]c(C)cc4c3F)ncnc2cc1OCCCN1CCCC1 [Cediranib]
- relative viability (0.00017 µM): 1.18 ± 0.024
- relative viability (0.00051 µM): 1.17 ± 0.076
- relative viability (0.00152 µM): 1.17 ± 0.03
- relative viability (0.00457 µM): 1.17 ± 0.059
- relative viability (0.01372 µM): 1.16 ± 0.033
- relative viability (0.04115 µM): 1.169 ± 0.011
- relative viability (0.1235 µM): 1.15 ± 0.029
- relative viability (0.3704 µM): 1.19 ± 0.033
- relative viability (1.111 µM): 1.2 ± 0.035
- relative viability (3.333 µM): 1.19 ± 0.039
- relative viability (10 µM): 0.987 ± 0.058

Structure (SMILES): CC[C@H](Nc1ncnc2[nH]cnc12)c1nc2cccc(F)c2c(=O)n1-c1ccccc1 [Idelalisib]
- relative viability (0.00017 µM): 1.18 ± 0.064
- relative viability (0.00051 µM): 1.22 ± 0.025
- relative viability (0.00152 µM): 1.18 ± 0.07
- relative viability (0.00457 µM): 1.23 ± 0.045
- relative viability (0.01372 µM): 1.02 ± 0.08
- relative viability (0.04115 µM): 0.946 ± 0.023
- relative viability (0.1235 µM): 0.875 ± 0.049
- relative viability (0.3704 µM): 0.772 ± 0.049
- relative viability (1.111 µM): 0.658 ± 0.053
- relative viability (3.333 µM): 0.6 ± 0.014
- relative viability (10 µM): 0.513 ± 0.017

Structure (SMILES): Cc1cc(Nc2ncnc3ccc(NC4=NC(C)(C)CO4)cc23)ccc1Oc1ccn2ncnc2c1 [Tucatinib]
- relative viability (0.00017 µM): 1.17 ± 0.019
- relative viability (0.00051 µM): 1.2 ± 0.024
- relative viability (0.00152 µM): 1.2 ± 0.024
- relative viability (0.00457 µM): 1.18 ± 0.03
- relative viability (0.01372 µM): 1.21 ± 0.068
- relative viability (0.04115 µM): 1.21 ± 0.068
- relative viability (0.1235 µM): 1.22 ± 0.09
- relative viability (0.3704 µM): 1.19 ± 0.098
- relative viability (1.111 µM): 1.14 ± 0.016
- relative viability (3.333 µM): 1.13 ± 0.074
- relative viability (10 µM): 1.08 ± 0.0088

Structure (SMILES): Cn1cc(-c2cc3c(N4CCN(c5ncc([C@@](C)(N)c6ccc(F)cc6)cn5)CC4)ncnn3c2)cn1 [Avapritinib]
- relative viability (0.00017 µM): 1.058 ± 0.0041
- relative viability (0.00051 µM): 1.04 ± 0.013
- relative viability (0.00152 µM): 1.07 ± 0.036
- relative viability (0.00457 µM): 1.05 ± 0.031
- relative viability (0.01372 µM): 1.05 ± 0.035
- relative viability (0.04115 µM): 1.01 ± 0.017
- relative viability (0.1235 µM): 1.09 ± 0.064
- relative viability (0.3704 µM): 1.06 ± 0.034
- relative viability (1.111 µM): 1.02 ± 0.021
- relative viability (3.333 µM): 1.03 ± 0.03
- relative viability (10 µM): 0.95 ± 0.038

Structure (SMILES): CC(C)(C)c1cc(NC(=O)Nc2ccc(-c3cn4c(n3)sc3cc(OCCN5CCOCC5)ccc34)cc2)no1 [Quizartinib]
- relative viability (0.00017 µM): 1.11 ± 0.14
- relative viability (0.00051 µM): 1.209 ± 0.012
- relative viability (0.00152 µM): 1.21 ± 0.095
- relative viability (0.00457 µM): 1.23 ± 0.019
- relative viability (0.01372 µM): 1.2 ± 0.052
- relative viability (0.04115 µM): 1.14 ± 0.012
- relative viability (0.1235 µM): 1.21 ± 0.03
- relative viability (0.3704 µM): 1.23 ± 0.061
- relative viability (1.111 µM): 1.14 ± 0.078
- relative viability (3.333 µM): 1.03 ± 0.038
- relative viability (10 µM): 0.734 ± 0.077

Structure (SMILES): O=C(Nc1cnn2ccc(N3CCC[C@@H]3c3cc(F)ccc3F)nc12)N1CC[C@H](O)C1 [Larotrectinib]
- relative viability (0.00017 µM): 1.13 ± 0.057
- relative viability (0.00051 µM): 1.19 ± 0.071
- relative viability (0.00152 µM): 1.19 ± 0.044
- relative viability (0.00457 µM): 1.16 ± 0.025
- relative viability (0.01372 µM): 1.2 ± 0.073
- relative viability (0.04115 µM): 1.15 ± 0.05
- relative viability (0.1235 µM): 1.14 ± 0.043
- relative viability (0.3704 µM): 1.17 ± 0.084
- relative viability (1.111 µM): 1.16 ± 0.021
- relative viability (3.333 µM): 1.09 ± 0.069
- relative viability (10 µM): 1.1 ± 0.04

Structure (SMILES): Cc1nc(-c2cn3c(n2)-c2ccc(-c4cnn(C(C)(C)C(N)=O)c4)cc2OCC3)n(C(C)C)n1 [Taselisib]
- relative viability (0.00017 µM): 1.09 ± 0.027
- relative viability (0.00051 µM): 1.1 ± 0.036
- relative viability (0.00152 µM): 1.06 ± 0.019
- relative viability (0.00457 µM): 1.01 ± 0.027
- relative viability (0.01372 µM): 0.923 ± 0.036
- relative viability (0.04115 µM): 0.75 ± 0.021
- relative viability (0.1235 µM): 0.634 ± 0.009
- relative viability (0.3704 µM): 0.549 ± 0.017
- relative viability (1.111 µM): 0.477 ± 0.0088
- relative viability (3.333 µM): 0.445 ± 0.026
- relative viability (10 µM): 0.451 ± 0.015
